Experimental data from patent US9844546B2, “Antibody against human HIF hydroxylase” (OXFORD UNIVERSITY INNOVATION LIMITED, priority 2001, dated 2017).

Tests used:
HIF-α/pVHL interaction = assay: Interaction of HIF-1α and pVHL.HA reticulocyte IVTTs, anti-HA co-immunoprecipitation; format: biochemical, human; conditions: 100 μM added to the HIF-1α IVTT
Method: ^35S-Methionine labelled […] subunits and pVHL.HA were produced separately by IVTT (in vitro transcription and translation) in reticulocyte lysates. IVTTs were performed under different conditions, mixed, and assayed for interaction by anti-HA co-immunoprecipitation. These in vitro assays allowed analysis of the HIFα/pVHL interaction using the recombinant proteins.
Labelled HIF-1α and pVHL.HA were generated separately in reticulocyte lysates (IVTT), in the presence or absence of Co (II), desferrioxamine, or Fe(II). Lysates were mixed in various combinations, and interactions assayed by anti-HA immunoprecipitation.
• 1. G. L. Semenza, Genes Dev 14, 1983-91. (2000). • 2. N. V. Iyer, et al., Genes Dev. 12, 149-162 (1997). • 3. E. Maltepe, J. V. Schmidt, D. Baunoch, C. A. Bradfield, M. C. Simon, Nature 386, 403-407 (1997). • 4. G. L. Wang, B.-H. Jiang, E. A. Rue, G. L. Semenza, Proc. Natl. Acad. Sci. USA 92, 5510-5514 (1995). • 5. S. Salceda, J. Caro, J. Biol. Chem. 272, 22642-22647 (1997). • 6. L. E. Huang, J. Gu, M. Schau, H. F. Bunn, Proc. Natl. Acad. Sci. USA 95, 7987-7992 (1998). • 7. M. S. Wiesener, et al., Blood 92, 2260-2268 (1998). • 8. P. H. Maxwell, et al., Nature 399, 271-275 (1999). • 9. K. Iwai, et al., Proc. Natl. Acad. Sci. USA 96, 12436-12441 (1999). • 10. J. Lisztwan, G. Imbert, C. Wirbelauer, M. Gstaiger, W. Krek, Genes Dev 13, 1822-33 (1999). • 11. M. E. Cockman, et al., J Biol Chem (2000). • 12. M. Ohh, et al., Nat Cell Biol 2, 423-7. (2000). • 13. T. Kamura, et al., Proc Natl Acad Sci USA 97, 10430-5. (2000). • 14. K. Tanimoto, Y. Makino, T. Pereira, L. Poellinger, Embo J 19, 4298-309. (2000). • 15. M. A. Goldberg, S. P. Dunning, H. F. Bunn, Science 242, 1412-1415 (1988). • 16. G. L. Wang, G. L. Semenza, Blood 82, 3610-3615 (1993). • 17. G. L. Semenza, Cell 98, 281-284 (1999). • 18. Hypoxia (<0.1% oxygen) was obtained in a workstation with O2, CO2 and temperature control (Ruskinn Technologies, Leeds, UK). For hypoxic harvest, buffers were preincubated in the chamber overnight. […]

[1] = test system: HIF-α prolyl-hydroxylase (HIF-PH) of cell extract; assay: Modifying activity (HIF-PH) of cell extract on HIF substrate (Gal/HIF-1α549-582/VP16 or 19:WT), pVHL capture assay; format: biochemical, mammalian; conditions: titration, cell extract
Method: The unlabelled HIF-1α substrate was immunopurified on beads, washed, and aliquots incubated under different test conditions in buffer or cell extract. After further washing, the beads were assayed for ability to interact with 35-S labelled pVHL IVTT (21) which was then visualised by fluorography.
The capture of labelled pVHL by different HIF substrates was monitored after exposure to various test conditions.
We went on to test a series of 2-oxoglutarate analogues which act as competitive inhibitors of this class of enzyme (29) for ability to inhibit HIF-PH as assessed by the ability of cell extracts to modify either HIF polypeptide (19:WT) or a HIF fusion protein (Gal/HIF-1α549-582/VP16) so as to promote pVHL capture. […] In one such experiment the effect of N-oxalylglycine on pVHL capture by a biotinylated HIF polypeptides as substrate was monitored. The WT:19 and 19:Pro564Hyp polypeptides described above were used as substrates. […] The effect of dimethyl-oxalyglycine on HIF-1α expression was also studied. HIF-1α immunoblot analysis of extracts of Hep3B and U2OS cells exposed to dimethyl-oxalylgylcine (0, 0.1 or 1.0 mM) for 6 hours was carried out. […]

HIF-1α/pVHL interaction = target: T1, HIF-1α/pVHL interaction (Homo sapiens, UniProt P40337); assay: Polypeptide blocking assay of HIF-1α and pVHL.HA IVTT mixture, anti-HA immunoprecipitation; format: binding; conditions: cell extract supplemented with Fe(II)
T1 construct: made in house; host or cells: TNT rabbit reticulocyte lysate (Promega), in vitro transcription/translation
T1 sequence (P40337 whole entry): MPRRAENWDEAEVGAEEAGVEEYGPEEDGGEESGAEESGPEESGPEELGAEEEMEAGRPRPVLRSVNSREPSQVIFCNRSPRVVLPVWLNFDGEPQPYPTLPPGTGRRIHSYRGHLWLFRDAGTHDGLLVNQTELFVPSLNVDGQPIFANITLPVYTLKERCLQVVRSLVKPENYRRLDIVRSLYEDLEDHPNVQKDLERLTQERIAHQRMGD
Method: Further studies were performed using synthetic polypeptides as inhibitors of the HIF-1α/pVHL interaction (23). […] Results for a series of polypeptides derived from this domain are summarized in FIG. 1B and implicate a similar minimal interaction domain. […] This polypeptide comprises HIF-1α polypeptide residues 556 to 574 and its ability to block binding following exposure to a variety of direct oxidation conditions was assessed.
We synthesized a polypeptide (HIF-1α residues 556-574), containing a trans-4-hydroxy-S-proline residue at position 564 (19:Pro564Hyp), since the trans-4-hydroxylation is the commonest enzymatic proline oxidation (25). A polypeptide blocking assay was carried out using the 19:Pro564Hyp modified polypeptide and, as a control, the unmodified polypeptide without the trans-4-hydroxylation (19:WT). The 19:WT polypeptide was either incubated with cell extract before the binding assay or was untreated. The 19:Pro564Hyp polypeptide was added to a mixture of HIF-1α and pVHL-HA IVTTs at a concentration of 1, 0.25, 0.05 or 0.01 μM and the cell extract treated or untreated 19:WT polypeptide at a concentration of 0.5 μM. Interaction of HIF-1α with pVHL was then assayed by anti-HA immunoprecipitation. […] A pVHL capture assay was then carried out using biotinylated synthetic polypeptides. The same polypeptides, 19:Pro564Hyp and 19:WT were assessed for the ability to capture wild type or mutant (Pro86His) pVHL. […] In both cases capture was specific for wild type, as opposed to mutant, pVHL.
• 1. G. L. Semenza, Genes Dev 14, 1983-91. (2000). • 2. N. V. Iyer, et al., Genes Dev. 12, 149-162 (1997). • 3. E. Maltepe, J. V. Schmidt, D. Baunoch, C. A. Bradfield, M. C. Simon, Nature 386, 403-407 (1997). • 4. G. L. Wang, B.-H. Jiang, E. A. Rue, G. L. Semenza, Proc. Natl. Acad. Sci. USA 92, 5510-5514 (1995). • 5. S. Salceda, J. Caro, J. Biol. Chem. 272, 22642-22647 (1997). • 6. L. E. Huang, J. Gu, M. Schau, H. F. Bunn, Proc. Natl. Acad. Sci. USA 95, 7987-7992 (1998). • 7. M. S. Wiesener, et al., Blood 92, 2260-2268 (1998). • 8. P. H. Maxwell, et al., Nature 399, 271-275 (1999). • 9. K. Iwai, et al., Proc. Natl. Acad. Sci. USA 96, 12436-12441 (1999). • 10. J. Lisztwan, G. Imbert, C. Wirbelauer, M. Gstaiger, W. Krek, Genes Dev 13, 1822-33 (1999). • 11. M. E. Cockman, et al., J Biol Chem (2000). • 12. M. Ohh, et al., Nat Cell Biol 2, 423-7. (2000). • 13. T. Kamura, et al., Proc Natl Acad Sci USA 97, 10430-5. (2000). • 14. K. Tanimoto, Y. Makino, T. Pereira, L. Poellinger, Embo J 19, 4298-309. (2000). • 15. M. A. Goldberg, S. P. Dunning, H. F. Bunn, Science 242, 1412-1415 (1988). • 16. G. L. Wang, G. L. Semenza, Blood 82, 3610-3615 (1993). • 17. G. L. Semenza, Cell 98, 281-284 (1999). • 18. Hypoxia (<0.1% oxygen) was obtained in a workstation with O2, CO2 and temperature control (Ruskinn Technologies, Leeds, UK). For hypoxic harvest, buffers were preincubated in the chamber overnight. RCC4-VHL.HA, labelling conditions and co-immunoprecipitation assays have been described previously (11); in the current study 12.5 μM MG132 was used for proteasomal inhibition. For standard harvest, the cells were removed from the chamber after hypoxic exposure, prior to cell lysis. Co-immunoprecipitation assays on all lysates were performed at 4° C. under ambient oxygen conditions. […] When programming in hypoxia, reaction mix was preincubated in the workstation for 10 minutes before addition of the DNA template. […]

[2] = test system: cytoplasmic extract-dependent modification of the 5′ VHL E3 target site; assay: Peptide competition of cytoplasmic extract-dependent modification of GAL-HIF-1α 344-553, in vitro VHL E3 ubiquitylation; format: biochemical, human; conditions: 12.5 μM peptide, RCC4 cytoplasmic extract
Method: The E1 activating enzyme used in ubiquitylation assays was either obtained from Affiniti Research (Exeter, UK) or purified from BL21 (DE3) E. coli transfected with plasmid expressing His6-tagged mouse E1. His6-E1 was purified by Ni^2+-agarose affinity chromatography. After dialysis against phosphate buffered saline, glycerol was added to 10% (vol/vol) and 25 ng/μl aliquots stored at −80° C. Human CDC34 recombinant E2 enzyme was from Affiniti Research (Exeter, UK). VHL E3 was obtained by anti-HA immunoprecipitation from stably transfected 7860-VHLHA cell lysates (Iliopoulos et al). GAL-HIF-1α substrate was prepared by anti-GAL immunoprecipitation from [^35S] methionine-labeled TnT rabbit reticulocyte (Promega) translates. Each 40 μl ubiquitylation reaction consisted of 4 μl of 5 mg/ml ubiquitin, 4 μl of 10×ATP regenerating system (20 mM Tris pH7.5, 10 mM ATP, 10 mM magnesium acetate, 300 mM creatine phosphate, 0.5 mg/ml creatine phosphokinase), 2 μl, E1, 3 μl E2, 6 μl VHL E3 immunopurified on protein G sepharose, 6 μl GAL-HIF-1α substrate immunopurified on agarose beads. Reactions were incubated at 30° C. for 2 h with occasional mixing, stopped by the addition of SDS sample buffer and analysed by SDS-PAGE and autoradiography. Cytoplasmic extract-based ubiquitylation assays have been previously described (Cockman).
It has been shown above that the 3′ VHL E3 target site responds to oxygen level via hydroxylation at proline residue 564. This praline residue forms part of a potential motif conserved between the 5′ and 3′ target sites. Mutation of the corresponding proline residue (P402A) in the 5′ target site also results in functional inactivation. It was possible therefore that proline residue 402 was also a target for regulatory hydroxylation, To test this we asked whether polypeptides corresponding to the 3′ VHL E3 target site could interfere with the cytoplasmic extract-dependent modification of the 5′ VHL E3 target site. […]

Row | Compound | capture of HIF-1α by pVHL.HA (HIF-α/pVHL interaction) | Fe(II) supplementation giving full activation of modifying activity [1] | blocking of HIF-1α/pVHL interaction by polypeptide after exposure to cell extract (HIF-1α/pVHL interaction) | competition of cytoplasmic extract effect on VHL-dependent ubiquitylation of GAL 344-553 [2]
1 | [Cl][Fe][Cl] [Fe(II), ferrous chloride, reference compound] | greatly enhanced capture | 5 µM | – | –
2 | Pro564Gly: HIF-1α 556-574 polypeptide where the critical proline is mutated to glycine (DLDLEMLAGYIPMDDDFQL; UniProt Q16665 556-574, looked up, fragment P564G) | – | – | did not block | no effect
